From patent publication US5019394A, “Liposome composition and its production” (Takeda Chemical Industries, Ltd., priority 1987, dated 1991)
Where a name gives a salt, the structure may show the parent alone.

experiment: Krafft point of anionic surfactants; assay type: physicochemical; conditions: not given

Row | Molecule | Krafft point [°C]
1 | CCCCCCCCCCCCCCCC(=O)NCCCOS(=O)(=O)O [sodium palmitoyl propanolamide sulfate ester] | 47
2 | CCCCCCCCCCCCCCc1ccc(S(=O)(=O)O)cc1 [sodium tetradecylbenzenesulfonate] | 43
3 | CCCCCCCCCCCCCCCCCS(=O)(=O)[O-].[Na+] [sodium heptadecanesulfonate] | 62
4 | CCCCCCCCCCCCCCCCCCc1ccc(S(=O)(=O)O)cc1 [sodium octadecylbenzenesulfonate] | 56
5 | CCCCCCCCCCCCCCCCCCOCCOS(=O)(=O)O [sodium octadecylether sulfate ester] | 46
6 | CCCCCCCCCCCCCCCCCCS(=O)(=O)[O-].[Na+] [sodium octadecanesulfonate] | 70
7 | CCCCCCCCCCCCCCCCCC(=O)NCCS(=O)(=O)O.[Na] [sodium stearoyltaurine] | 58
8 | CCCCCCCCCCCCCCCCCCOS(=O)(=O)[O-].[Na+] [sodium octadecyl sulfate] | 58
9 | CCCCCCCCCCCCCCCCOS(=O)(=O)[O-].[Na+] [sodium hexadecyl sulfate] | 43
10 | CCCCCCCCCCCCCCCCCC(=O)NCCOS(=O)(=O)O [sodium stearoyl ethanolamide sulfate ester] | 53
11 | CCCCCCCCCCCCCCCC(=O)NCCOS(=O)(=O)O [sodium palmitoyl ethanolamide sulfate ester] | 42
12 | CCCCCCCCCCCCCCCCCC(=O)NCCCOS(=O)(=O)O [sodium stearoyl propanolamide sulfate ester] | 57
13 | CCCCCCCCCCCCOS(=O)(=O)[O-].[Na+] [sodium dodecyl sulfate, reference compound] | 9
14 | CCCCCCCCCCCCCCCCCCOCCOCCOS(=O)(=O)O [sodium octadecyl diether sulfate ester] | 40
15 | CCCCCCCCCCCCCCCC(=O)N(C)CCS(=O)(=O)O.[Na] [sodium palmitoylmethyltaurine] | 43
16 | CCCCCCCCCCCCCCCS(=O)(=O)[O-].[Na+] [sodium pentadecanesulfonate] | 48
17 | CCCCCCCCCCCCc1ccc(S(=O)(=O)O)cc1 [sodium dodecylbenzenesulfonate] | 40
18 | CCCCCCCCCCCCS(=O)(=O)[O-].[Na+] [sodium dodecanesulfonate] | 38
19 | sodium octadecyl disulfate ester | 45
20 | CCCCCCCCCCCCCCCCCC(=O)N(C)CCS(=O)(=O)O.[Na] | 58
21 | sodium hexadecyl disulfate ester | 39
22 | CCCCCCCCCCCCCCCCc1ccc(S(=O)(=O)O)cc1 [sodium hexadecylbenzenesulfonate] | 46
23 | CCCCCCCCCCCCCCS(=O)(=O)[O-].[Na+] [sodium tetradecanesulfonate] | 48
24 | CCCCCCCCCCCCCCCC(=O)NCCS(=O)(=O)O.[Na] [sodium palmitoyltaurine] | 43
25 | CCCCCCCCCCCCCCCCS(=O)(=O)[O-].[Na+] [sodium hexadecanesulfonate] | 57

experiment: observed phase transition temperature of phospholipids; assay type: physicochemical; conditions: phospholipid

Row | Molecule | observed phase transition temperature
26 | CCCCCCCCCCCCCCCC(=O)OCC(COP(=O)(O)OCC(N)C(=O)O)OC(=O)CCCCCCCCCCCCCCC (centres unmarked) [DPPS, dipalmitoylphosphatidyl serine] | 51 °C
27 | CCCCCCCCCCCCCCCC(=O)OC[C@H](COP(=O)([O-])OCC[N+](C)(C)C)OC(=O)CCCCCCCCCCCCCCC [DPPC, dipalmitoylphosphatidyl choline] | 41.4 °C
28 | CCCCCCCCCCCCCC(=O)OCC(COP(=O)(O)OCCN)OC(=O)CCCCCCCCCCCCC (centres unmarked) [DMPE, dimyristoylphosphatidyl ethanolamine] | 50 °C
29 | CCCCCCCCCCCCCC(=O)OC[C@H](COP(=O)([O-])OCC[N+](C)(C)C)OC(=O)CCCCCCCCCCCCC [DMPC, dimyristoylphosphatidyl choline] | 23.9 °C
30 | CCCCCCCCCCCCCCCCCC(=O)OCC(COP(=O)(O)OCCN)OC(=O)CCCCCCCCCCCCCCCCC (centres unmarked) [DSPE, distearoylphosphatidyl ethanolamine] | above 60 °C
31 | distearoyl sphingomyelin [DSSM] | 57 °C
32 | CCCCCCCCCCCCCC(=O)OCC(COP(=O)(O)OCC(N)C(=O)O)OC(=O)CCCCCCCCCCCCC (centres unmarked) [DMPS, dimyristoylphosphatidyl serine] | 38 °C
33 | CCCCCCCCCCCCCCCCCC(=O)OCC(COP(=O)(O)OCC(O)CO)OC(=O)CCCCCCCCCCCCCCCCC (centres unmarked) [DSPG, distearoylphosphatidyl glycerine] | 55 °C
34 | CCCCCCCCCCCCCCCCCC(=O)OCC(COP(=O)([O-])OCC[N+](C)(C)C)OC(=O)CCCCCCCCCCCCCCCCC (centres unmarked) [DSPC, distearoylphosphatidyl choline] | 54.9 °C
35 | dipalmitoyl sphingomyelin [DPSM] | 41 °C
36 | CCCCCCCCCCCCCCCC(=O)OCC(COP(=O)(O)OCC(O)CO)OC(=O)CCCCCCCCCCCCCCC (centres unmarked) [DPPG, dipalmitoylphosphatidyl glycerine] | 41 °C
37 | CCCCCCCCCCCCCCCC(=O)OCC(COP(=O)(O)OCCN)OC(=O)CCCCCCCCCCCCCCC (centres unmarked) [DPPE, dipalmitoylphosphatidyl ethanolamine] | 60 °C
38 | CCCCCCCCCCCCCC(=O)OCC(COP(=O)(O)OCC(O)CO)OC(=O)CCCCCCCCCCCCC (centres unmarked) [DMPG, dimyristoylphosphatidyl glycrine] | 23 °C
39 | CCCCCCCCCCCCCCCC(=O)OCC(COP(=O)([O-])OCC[N+](C)(C)C)OC(=O)CCCCCCCCCCCCC (centres unmarked) [PMPC, palmitoylmyristoylphosphatidyl choline] | 27.2 °C
40 | CCCCCCCCCCCCCCCCCC(=O)OCC(COP(=O)(O)OCC(N)C(=O)O)OC(=O)CCCCCCCCCCCCCCCCC (centres unmarked) [DSPS, distearoylphosphatidyl serine] | ≥ 50 °C
41 | CCCCCCCCCCCCCCCC(=O)OC(COC(=O)CCCCCCCCCCCCC)COP(=O)([O-])OCC[N+](C)(C)C (centres unmarked) [MPPC, myristoylpalmitoylphosphatidyl choline] | 35.3 °C

The next lines start with the values.

Row | observed phase transition temperature | Molecule
42 | 44.0 °C | CCCCCCCCCCCCCCCCCC(=O)OCC(COP(=O)([O-])OCC[N+](C)(C)C)OC(=O)CCCCCCCCCCCCCCC (centres unmarked) [SPPC, stearoylpalmitoylphosphatidyl choline]
43 | 47.4 °C | CCCCCCCCCCCCCCCCCC(=O)OC(COC(=O)CCCCCCCCCCCCCCC)COP(=O)([O-])OCC[N+](C)(C)C (centres unmarked) [PSPC, palmitoylstearoylphosphatidyl choline]

experiment: dissolution of SMT in aqueous 6-CF solution; assay type: physicochemical; conditions: 30 mg in 10 ml, pH 7, room temperature
Protocol: 270 mg of DPPC and 30 mg of DSPC were dissolved in 70 ml of 1:1 mixture of chloroform and isopropylether in a 1--1 beaker. To 10 ml of an aqueous solution of 6-carboxyfluorescein (6-CF), pH 7, which had been prepared beforehand so that the osmotic pressure might be the same as that of the physiological saline, 30 mg of sodium stearoylmethyltaurine (SMT) was added at room temperature. […] Then this solution was added to the solution of the phospholipid in an organic solvent, and emulsified by a probe type sonicator (Ohtake, Japan), to give a w/o type emulsion. Sonication at 50 watt for 30 seconds was repeated 10 times. This emulsion was charged to a rotary evaporator to evaporate off the organic solvent at 60° C. under reduced pressure, to give REV. The pressure in the evaporator was reduced greatly in the initial stage, but then adjusted in the course of evaporation of the organic solvent to prevent bumping. A small amount of the organic solvent remained in REV was further evaporated off by blowing nitrogen gas. […] The entrapment ratio of 6CF in this liposome composition was 33.2% as determined by quantification of 6-Cf entrapped in liposome (Note 1).

Row | Molecule | solubility of SMT in aqueous 6-CF solution
44 | CCCCCCCCCCCCCCCCCC(=O)N(C)CCS(=O)(=O)O.[Na] | almost insoluble
